Reference: PMC9544596 (Journal of Clinical Pharmacology, 2022)

Legend:
Enterococcus spp. = experiment: Vancomycin MIC of cultured clinical isolates; type: cell-based
[1] = Population pharmacokinetic model of vancomycin

With `CN[C@H](CC(C)C)C(=O)N[C@H]1C(=O)N[C@@H](CC(N)=O)C(=O)N[C@H]2C(=O)N[C@H]3C(=O)N[C@H](C(=O)N[C@H](C(=O)O)c4cc(O)cc(O)c4-c4cc3ccc4O)[C@H](O)c3ccc(c(Cl)c3)Oc3cc2cc(c3O[C@@H]2O[C@H](CO)[C@@H](O)[C@H](O)[C@H]2O[C@H]2C[C@](C)(N)[C@H](O)[C@H](C)O2)Oc2ccc(cc2Cl)[C@H]1O` [vancomycin] the MIC50 (Enterococcus spp.; Enterococcus, read-out: MIC50 (min-max)) was 1 µg/mL, the “MIC50 (min-max)” value (Enterococcus spp.; patients without shock, 6 isolates) was 1 µg/mL and the “MIC50 (min-max)” value (Enterococcus spp.; septic shock patients, 5 isolates) was 1 µg/mL. For the same molecule, the “CL, bootstrap of final model estimate” value ([1]; 1000 bootstrap replicates) was 1.23 L/h, the “Vd, bootstrap of final model estimate” value ([1]; 1000 bootstrap replicates) was 66.51 L and the “θ1, bootstrap of final model estimate” value ([1]; 1000 bootstrap replicates) was 1.00. The “Vd, final model estimate” value ([1]; Thai GFR not indexed to BSA final model) was 67.46 L.
